From PubChem BioAssay AID1645848
≈ marks a conversion by molar mass, not a printed value.

Conditions: buffer; pH 7.4; 6.0 h; 150.0 µM

| Structure (SMILES) | solubility kinetic [µg/mL] |
| --- | --- |
| C#CCNC(=O)c1nc(-c2ccc(Cl)nc2)c2ccccn12 | 2.64 (≈ 8.5 µM) |
| Cc1ccc(-c2cc(C(=O)Nc3ccc(S(=O)(=O)Nc4ccc(C#N)cc4)cc3)c3ccccc3n2)cc1C | 3.79 (≈ 7.12 µM) |
| CCc1oc2ccccc2c1C(=O)c1cc(I)c(O)c(I)c1 | > 77 |
| Cc1ccc(S(=O)(=O)Nc2cccnc2C(=O)Nc2nc(-c3ccccc3)cs2)cc1 | < 1 |
| Cc1nc2c(-c3ccccc3)cnn2c(N)c1-c1ccccc1 | < 1 |
| Fc1ccccc1Nc1nc(-c2ccncc2)nc2ccccc12 | < 1 |
| COc1ccc(S(=O)(=O)Nc2cnccc2C(=O)Nc2nc(-c3ccccc3)cs2)cc1 | 54.1 (≈ 116 µM) |
| Cc1csc2nc(-c3cccc(NC(=O)c4cccc(F)c4)c3)cn12 | < 1 |
| CCOC(=O)CCNc1cc(N2CCc3ccccc3CC2)nc(-c2cccnc2)n1 | 4.04 (≈ 9.67 µM) |
| Cc1ccc(NC(=O)CSc2ncc(S(=O)(=O)c3ccc(C(C)C)cc3)c(=O)[nH]2)cc1C | > 70 |
| c1cn2cc(-c3ccc4cn[nH]c4c3)nc(Nc3ccc(N4CCOCC4)cc3)c2n1 | < 1 |
| O=C(Nc1ccc([S+](=O)([O-])Nc2nccs2)cc1)c1ccn[nH]1 | > 52 |
| OC1(c2ccc(Cl)cc2)CCN(Cc2c[nH]c3ccccc23)CC1 | > 50 |
| O=S(=O)(Nc1nccs1)c1ccc(NCc2cccc(Cl)c2Cl)cc1 | < 1 |
| O=C(Cc1ccc(O)cc1)N1CC(CNc2ccccc2)C2(C1)CN(c1ccccc1)C2 (stereo not drawn) | < 1 |
| Cc1noc(/C=C/c2ccccc2F)c1S(=O)(=O)N1CCC(C(=O)Nc2ccc(C#N)cc2)CC1 | < 1 |
| COc1cc2c(c(OC)c1OC)-c1ccc(SC)c(=O)cc1C(N)CC2 (stereo not drawn) | > 55 |
| COc1ccc(-n2c(C)cc(C3=NNC(=NC4CC4)SC3)c2C)cc1 | 14 (≈ 39.5 µM) |
| Cc1ccc(S(=O)(=O)Nc2cnccc2C(=O)Nc2nc(-c3ccc(Oc4ccccc4)cc3)cs2)cc1 | 0.918 (≈ 1.69 µM) |
| C[C@]12N[C@H](Cc3ccccc31)c1ccccc12 | > 33 |
| O=C(NC1CCCN(c2cc(-c3ccc(F)cc3)[nH]n2)C1)c1ccc2ncccc2c1 (stereo not drawn) | 12.5 (≈ 30.2 µM) |
| N#Cc1cccc(-c2nccc(-n3ccnc3)n2)c1 | 7.26 (≈ 29.4 µM) |
| CCOC(=O)N1CCN(Cc2nc3c(c(=O)n(C)c(=O)n3C)n2Cc2cccc(C)c2)CC1 | > 67 |
| COc1ccccc1CNS(=O)(=O)c1ccc(-c2cnc(C3CC3)o2)cc1 | 2.61 (≈ 6.79 µM) |
| O=[N+]([O-])c1cccc(CSc2nc3ncc(Br)cc3[nH]2)c1 | < 1 |

| Structure (SMILES) | solubility kinetic [µg/mL] |
| --- | --- |
| COc1ccc2[nH]c(=O)c(-c3noc(-c4ccccc4)n3)cc2c1 | < 1 |
| Nc1ncnc2c1c(-c1ccc(Oc3ccccc3)cc1)cn2C1CCCC1 | < 1 |
| Cn1nnnc1Sc1ncnc2sccc12 | > 37 |
| COc1cccc(CN(C)c2ccc([S+](=O)([O-])Nc3nccs3)cc2)c1O | 2.08 (≈ 5.13 µM) |
| Clc1cccc(-c2ccc(-c3nnc(CCCc4ccc5cccnc5n4)o3)cc2)c1 | < 1 |
| Cc1ccc(S(=O)(=O)N(C)c2ccccc2C(=O)Nc2nc(-c3ccccc3)cs2)cc1 | < 1 |
| Cc1cnccc1-c1nc(Nc2ccc(F)c(F)c2)c2ccccc2n1 | 1.43 (≈ 4.09 µM) |
| COC[C@@H]1CN(C(=O)c2n[nH]c3ccccc23)C[C@H]1c1nc(C)no1 | > 100 |
| C=CCON=C(C[C@H]1O[C@@H]2O[C@]3(C)CC[C@@H]4[C@H](C)CC[C@@H]([C@H]1C)[C@@]24OO3)[C@H]1O[C@@H]2O[C@]3(C)CC[C@H]4[C@H](C)CC[C@@H]([C@@H]1C)[C@@]24OO3 | 26.6 (≈ 42.1 µM) |
| CNc1nc(-c2ccc3c(N)n[nH]c3c2)cc(N2C[C@@H](C(=O)NC3CCCCC3)CC[C@H]2C)n1 | 15.2 (≈ 32.9 µM) |
| Oc1ccc(CNc2ccccc2F)c2cccnc12 | 4.4 (≈ 16.4 µM) |
| CCNC(=O)c1coc(COc2ccc3c(c2)C(c2ccc(F)cc2)N(C(=O)CC(C)C)CC3)n1 (stereo not drawn) | 3.8 (≈ 7.92 µM) |
| COc1cccc(CNc2ccc(S(=O)(=O)Nc3cccnc3)cc2)c1O | 3.93 (≈ 10.2 µM) |
| Cc1nn(Cc2ccc(Cl)cc2)c(C)c1NC(=O)c1cc(-c2ccc3c(c2)OCO3)on1 | < 1 |
| CCCOC(=O)c1ccc(Oc2c(-c3ccc(O)cc3O)n[nH]c2C)cc1 | < 1 |
| CSc1cccc(NC(=O)CC[C@H]2O[C@@H]3O[C@]4(C)CC[C@H]5[C@H](C)CC[C@@H]([C@@H]2C)[C@@]35OO4)c1 | 1.2 (≈ 2.6 µM) |
| Cc1ccc(-c2nc(NCC(=O)Nc3cccc(C(=O)O)c3)c3ccccc3n2)cc1 | > 61 |
| COc1cc(Cl)c(C)cc1NC(=O)CSc1ncc(S(=O)(=O)c2ccc(C(C)(C)C)cc2)c(=O)[nH]1 | < 1 |
| Cc1cccc(C(=O)Nc2ccc(N3CCC(N4CCCCC4)CC3)c(C(=O)O)c2)c1 | > 62 |
| C=CC(=O)N1CCCN(c2cc(NCCC(=O)O)nc(-c3ccccn3)n2)CC1 | > 59 |
| Cc1ccc(-c2c(CN3CCN(c4cccc(C(F)(F)F)c4)CC3)csc2C)cc1 | < 1 |
| Oc1ccc(CNc2ccc(F)cc2F)c2cccnc12 | 1.22 (≈ 4.27 µM) |
| Fc1cnc(-c2ccccc2C(F)F)nc1NCC1CCN(c2cnccn2)C1 (stereo not drawn) | 42.2 (≈ 105 µM) |
| O=C1CCCC2=C1C1(CCCC1)N=C(Nc1nc3cc(Br)ccc3o1)N2 | < 1 |
| O=C(Nc1nc(-c2ccccc2)cs1)c1ccncc1NS(=O)(=O)c1ccccc1F | 38.8 (≈ 85.4 µM) |

| Structure (SMILES) | solubility kinetic [µg/mL] |
| --- | --- |
| Cc1ccc(S(=O)(=O)Nc2cnccc2C(=O)Nc2nc(-c3ccc(F)cc3)cs2)cc1 | < 1 |
| Cc1ccc(NS(=O)(=O)c2cccc(C(=O)O)c2)cc1S(=O)(=O)N1CCOCC1 | > 65 |
| COc1ccc(-n2nc(C3CCCN(C(=O)C4CC4)C3)[nH]c2=O)cc1 (stereo not drawn) | > 51 |
| CCOC(=O)C1=C(CN(CC)Cc2ccccc2)NC(=O)NC1c1ccc(OC(C)C)cc1 (stereo not drawn) | < 1 |
| COc1cc(N2CCC(N3CCN(C)CC3)CC2)ccc1Nc1ncc(Cl)c(Nc2ccccc2P(C)(C)=O)n1 | > 86 |
| CC(=O)c1c(C)[nH]c(C(=O)Nc2ccc(C)c(S(=O)(=O)Nc3ccc(Br)cc3)c2)c1C | < 1 |
| O=C(Nc1nc(-c2ccc(F)cc2)cs1)c1ccncc1NS(=O)(=O)c1ccccc1Cl | < 1 |
| Cc1cccc(NC(=S)N2CCN(c3cccc(C(F)(F)F)c3)CC2)c1 | 1.59 (≈ 4.18 µM) |
| Cc1ccccc1C(=O)N1CCc2cc(-c3nc(NC(=O)Cc4ccccc4)sc3C)ccc21 | < 1 |
| COc1cccc(-n2ncc3c2CCCC3NC(=O)c2ccccn2)c1 (stereo not drawn) | > 51 |
| Cc1ccc(S(=O)(=O)c2cnc(SC(C)C(=O)Nc3ccccc3)[nH]c2=O)cc1 (stereo not drawn) | > 63 |
| Cc1nnc2c3ccccc3nc(N3CCN(c4ccccc4)CC3)n12 | < 1 |
| CN(C(=O)CNC(=O)c1cc(F)ccc1OCC(=O)Nc1ccc(I)cc1)c1ccc(F)cc1 | < 1 |
| NC(=O)C1CCN(c2nc(-c3ccc(OC(F)(F)F)cc3)cs2)CC1 | < 1 |
| COc1cccc(CNc2ccc(S(=O)(=O)Nc3ccc(N4CCNCC4)cc3)cc2)c1O | 58.3 (≈ 124 µM) |
| O=C(O)c1cccc(-c2noc(-c3ccccc3F)n2)c1 | 7.02 (≈ 24.7 µM) |
| CCOC(=O)N1CCN(Cc2nc3cc(NC(=O)CC(C)C)ccc3n2C(C)C)CC1 | > 63 |
| COc1ccc(-c2nc3ccc(C4=NNC(=O)CC4C)cc3[nH]2)cc1 (stereo not drawn) | < 1 |
| Cc1ccc(-c2cc(C(=O)Nc3ccc(S(N)(=O)=O)cc3)c3cccc(C)c3n2)cc1C | < 1 |
| Cc1cc(C)nc(NS(=O)(=O)c2ccc(NC(=S)NC(=O)COc3ccc(Br)cc3Cl)cc2)n1 | > 100 |
| CC(=O)c1c(C)[nH]c(C(=O)Nc2cccc([S+](=O)([O-])Nc3ccccn3)c2)c1C | > 61 |
| CCOc1cc2c(cc1OCC)CN(C(=O)c1cc3sccc3n1Cc1ccccc1)CC2 | < 1 |
| CCOP(=O)(Cc1ccc(C(=O)Nc2ccc(Br)cc2C#N)cc1)OCC | 14.9 (≈ 33.1 µM) |
| Cc1sc2ncnc(Sc3nnnn3-c3ccccc3)c2c1-c1ccccc1 | 0.29 (≈ 0.72 µM) |
| CC1(C)CC2CC(C)(CN2S(=O)(=O)c2ccc(C(=O)Nc3cccc(S(=O)(=O)N4CCOCC4)c3)cc2)C1 (stereo not drawn) | < 1 |

| Structure (SMILES) | solubility kinetic [µg/mL] |
| --- | --- |
| COc1ccc(-c2nc(N3CCOCC3)c3sc(CN(C)c4ncc(C(=O)NO)cn4)cc3n2)cn1 | 5.56 (≈ 10.9 µM) |
| Nc1ncnc2c1ncn2[C@H]1O[C@@H](CO)[C@@H](O)[C@H]1N | > 39 |
| CCCN1CNc2c(c(=O)[nH]c(=S)n2CCc2ccc(OC)c(OC)c2)C1 | > 58 |
| Cc1cc(C)nc(NC(=S)N2CCN(c3cccc(C(F)(F)F)c3)CC2)c1 | 0.748 (≈ 1.9 µM) |
| CCOc1ccc(CCNC(=O)c2cc3sccc3n2Cc2ccc(Cl)c(F)c2)cc1OCC | < 1 |
| Nc1ccc(-c2cccc3c(=O)cc(N4CCOCC4)oc23)cc1 | > 48 |
| COc1ccc(C)cc1NS(=O)(=O)c1ccc(-c2cnc(C3CC3)o2)cc1 | < 1 |
| CC(=O)Nc1ccc(C(=O)Nc2ccccc2N)cc1 | > 40 |
| CCc1ccc(NC(=O)c2cc3ncccn3n2)cc1 | 6.75 (≈ 25.3 µM) |
| c1ccc(-c2cn[nH]c2)cc1 | > 14 |
| Cc1cnc(-c2ccccc2OC(C)C)nc1NCc1ccc(-n2ccnn2)cc1 | 41.4 (≈ 103 µM) |
| Cc1ccc(-n2nc3c(N4CCCC(C(=O)NCc5ccccc5C)C4)nnc(C)c3c2C)cc1 (stereo not drawn) | < 1 |
| COc1ccc(-n2nc(C3CCN(C(=O)C4CC4)CC3)[nH]c2=O)cc1 | > 51 |
| CC(C)(C)c1ccc(OCc2nn3c(-c4ccncc4)nnc3s2)cc1 | < 1 |
| CCCc1ccc(NC(=O)c2ccc3c(c2)NC(=O)CS3)cc1 | < 1 |
| O=S(=O)(Nc1nc2n(n1)C(c1ccccc1)C=C(c1ccc(Cl)cc1)N2)c1ccccc1 (stereo not drawn) | 1.09 (≈ 2.36 µM) |
| CN(C)S(=O)(=O)c1cccc(NC(=O)c2ccc[nH]2)c1 | 13.3 (≈ 45.2 µM) |
| COc1ccc(-n2cnc3cc(C(=O)N4CCCCC4)ccc32)cc1 | > 50 |
| O=[S+]([O-])(Nc1cnc2ccccc2c1)c1ccc(NCc2ccc(Cl)cc2O)cc1 | < 1 |
| O=C(Nc1nc(-c2ccccc2)cs1)c1ccncc1NS(=O)(=O)c1cccs1 | < 1 |
| COc1ccc(CNc2ccc(S(=O)(=O)Nc3nccs3)cc2)cc1O | 7.85 (≈ 20.1 µM) |
| Cc1cc2ccccc2n1CC(=O)NC1CCCCC1 | 3.41 (≈ 12.6 µM) |
| NC(=O)C1CCN(c2nnc(-c3ccc(Br)cc3)s2)CC1 | 8.24 (≈ 22.4 µM) |
